This is an account of results in paper PMC6037002, “Drug targeting to decrease cardiotoxicity – determination of the cytotoxic effect of GnRH-based conjugates containing doxorubicin, daunorubicin and methotrexate on human cardiomyocytes and endothelial cells” (Beilstein Journal of Organic Chemistry, 2018).

Read-outs that look alike come from different tables or passages of the source. Some results are limits rather than exact numbers.

Series [1] concerns HT-29 human colon adenocarcinoma cells. As to conditions: MTT assay; cited from earlier work. The text has this:
(§1) Table 1 Comparative study of cytotoxic effects and cardiotoxicity elicited by GnRH-based antitumor compounds (1–15) and reference substances (AN-152, Dox, Dau, Mtx). IC50 values show antitumor cytotoxic characteristics of the conjugates in human breast cancer (MCF-7), human colorectal adenocarcinoma (HT-29) and human acute monocytic leukemia (MM6) derived cell lines as representative tumor cells.

In series [2] the test system is human acute monocytic leukemia (MonoMac6) cells. The note with it: cited from earlier work.
Description: as §1

Series [3] relates to MCF-7 human breast adenocarcinoma cells. As to conditions: MTT assay; cited from earlier work.
Description: as §1

Series [4] has as its system human umbilical vein endothelial cells (HUVEC). The series can be described thus: Impedimetric measurement (xCELLigence SP), delta slope, HUVEC. As to conditions: for delta slope (DS), short-term / delta slope (DS), long-term: HUVEC, three parallels; for delta slope (DS), short-term: 0–2 h; for delta slope (DS), long-term: 0–72 h. An excerpt:
(§2) The main objective of the study reported here was to evaluate the in vitro cardiotoxic effects (as undesired side effects) of […] GnRH-III-based conjugates containing doxorubicin, daunorubicin and methotrexate on two essential target cells of cardiovascular diseases: vascular endothelial cells and cardiomyocytes. The rate of cytotoxicity (antitumor effect) vs cardiotoxicity (toxic effects on cardiomyocytes and vascular endothelium) is an important factor for efficient drug development for targeted tumor therapy with minimized side effects. The technique used in this work – impedimetry – is a dedicated one for real-time monitoring of cells to distinguish short-term (0–2 hours) and long-term (0–72 hours) effects elicited by the drug or carrier–drug conjugates. The basic theory of impedimetry is that proliferation/viability of cells is well detectable by monitoring of the electric impedance (Z) in an AC environment, due to the electric insulator character of intact surface membranes composed of the phospholipid bilayer. […] While cell physiological responses of short-term exposures result in characteristic changes of cell morphology (e.g., spreading), long-term effects characteristically influence in particular the proliferation of cells, and therefore the cytotoxic effects. The presented dimensionless values of delta slope (DS) measure the difference between the slope of the curve corresponding to the treatment and that of the control curve in impedimetric recordings, the negative signs refer to the relative values to the identical control.
(§3) Experimental part – Cellular samples
(§4) In the present study, GnRH conjugates containing anti-tumour drugs (e.g., daunorubicin, doxorubicin) were investigated in order to evaluate whether the conjugates exert a decrease cardiotoxic effect compared to that of the free drugs. The cardiac myocytes and the vascular endothelium cells are the most frequently detected target cells of antitumor compounds and they are employed in our study. Human umbilical vein endothelial cells (HUVEC; Promocell, Biomedica, Wien, Austria) were cultured in Endothelial Cell Growth Medium with Endothelial Cell Growth Supplement Mix (Promocell, Biomedica, Wien, Austria) and 100 µg/mL penicillin/streptomycin. Primary human cardiac myocytes (HCM; Promocell, Biomedica, Wien, Austria) were cultured in Myocyte Growth Medium (Promocell, Biomedica, Wien, Austria).
(§5) Impedimetric measurements
(§6) The xCELLigence SP system was used for impedimetric measurements. The bottom of the wells of a 96-well E-plate is installed with a golden electrode array that constitutes the adhesion surface. Adhering cells – acting as insulators – change the electric impedance measured on the electrodes. The measured impedance change is in direct correlation with the number of adhering cells and the extent of adhesion. The results of impedance change are given in the form of Cell Index (CI) calculated by the xCELLigence system according to the […]
(§7) where Zt is the measured impedance in a time point, Zb is the background impedance and F is an inbuilt factor (F = 15 at 10 kHz) depending on the frequency of the alternating current. The measurements took place in an incubator holding a 37 °C temperature and 5% carbon-dioxide […]
(§8) The experiments started with a measurement of baseline impedance for 1 hour. After that, the cells (10^4 cells/well) were added to the wells and allowed to adhere to the electrodes. When the adhering cells reached a balanced state in the wells, signified by the impedance curves […]
(§9) free drugs at 10−12 – 10−6 M and the conjugates at 10−8 – 10−6 M final concentrations were […]
(§10) added to the wells. The changes in impedance were measured for at least 72 hours. For each measurement three parallels were measured.
(§11) The evaluation of responses followed the previously described strategy: acute effects of compounds were evaluated as a characteristic morphology of the curves in the 0–2 hours

For series [5], the system named is primary human cardiac myocytes (HCM). The note with it: for delta slope (DS), short-term / delta slope (DS), long-term: HCM, three parallels; for delta slope (DS), short-term: 0–2 h; for delta slope (DS), long-term: 0–72 h.
Description: as §2, §3, §4, §5, §6, §7, §8, §9, §10, §11

As for GnRH-III(Dox-O-glut) [conjugate 1], the concentration for half-maximal inhibition (IC50) in series [1] is 2.4 ± 0.2 µM; in series [2], 0.039 ± 0.01 µM; in series [3] it was 0.1 ± 0.1 µM. Also, the “delta slope (DS), short-term” value in series [4] (Table S2a, 10^-6 mol/L) is reported as 0.038; in series [4] (Table S2a, 10^-7 mol/L) it was 0.016; in series [4] (Table S2a, 10^-8 mol/L) it was -0.011; in series [5] (Table S2b, 10^-6 mol/L), 0.012; in series [5] (Table S2b, 10^-7 mol/L), 0.002; in series [5] (Table S2b, 10^-8 mol/L), 0.001. For the same compound, the “delta slope (DS), long-term” value in series [4] (Table S2a, 10^-6 mol/L, listed as 1) is -0.054; in series [4] (Table S2a, 10^-6 mol/L, listed as GnRH-III(Dox-O-glut)), −0.054; in series [4] (Table S2a, 10^-7 mol/L, listed as 1), -0.028; in series [4] (Table S2a, 10^-7 mol/L, listed as GnRH-III(Dox-O-glut)), −0.028; in series [4] (Table S2a, 10^-8 mol/L), -0.003; in series [5] (Table S2b, 10^-6 mol/L), −0.025. Moreover, in series [5] (Table S2b, 10^-8 mol/L), the “delta slope (DS), long-term” value is given as −0.002.
For GnRH-III(Dau=Aoa-GFLG) [conjugate 7], the IC50 in series [1] is 22.5 ± 1.7 µM; in series [2], 0.894 ± 0.25 µM; in series [3], 3.9 ± 1.2 µM. Also, the “delta slope (DS), short-term” value in series [4] (Table S4a, 10^-6 mol/L) is reported as 0.003; in series [4] (Table S4a, 10^-7 mol/L) it was -0.012; in series [4] (Table S4a, 10^-8 mol/L), -0.002; in series [5] (Table S4b, 10^-6 mol/L), 0.003; in series [5] (Table S4b, 10^-7 mol/L) it was -0.001; in series [5] (Table S4b, 10^-8 mol/L), -0.001. In addition, the “delta slope (DS), long-term” value in series [4] (Table S4a, 10^-6 mol/L) is recorded as −0.013; in series [4] (Table S4a, 10^-7 mol/L), 0.001; in series [4] (Table S4a, 10^-8 mol/L), -0.001; in series [5] (Table S4b, 10^-6 mol/L), -0.002; in series [5] (Table S4b, 10^-7 mol/L), -0.002; in series [5] (Table S4b, 10^-8 mol/L), 0.001. In addition, in series [5] (long-term (0–72 h), 10^−8–10^−6 mol/L (free drugs 10^−12–10^−6 mol/L), impedimetry, one-way ANOVA), the “cytotoxic effect on HCM, result in words” value was “completely lost their cytotoxic effect”.
GnRH-III(Dau=Aoa-YRRL) [conjugate 8]: the 50% inhibitory concentration (IC50) is 28.6 ± 5.5 µM in series [1], above 1 µM in series [2] and 1.8 ± 0.5 µM in series [3]. The “delta slope (DS), short-term” value in series [4] (Table S4a, 10^-6 mol/L) is listed as 0.003; in series [4] (Table S4a, 10^-7 mol/L) it was -0.004; in series [4] (Table S4a, 10^-8 mol/L), -0.010; in series [5] (Table S4b, 10^-6 mol/L) it was -0.002; in series [5] (Table S4b, 10^-7 mol/L) it was -0.001; in series [5] (Table S4b, 10^-8 mol/L), -0.003. Also, the “delta slope (DS), long-term” value is −0.018 in series [4] (Table S4a, 10^-6 mol/L); -0.002 in series [4] (Table S4a, 10^-7 mol/L); -0.007 in series [4] (Table S4a, 10^-8 mol/L); −0.004 in series [5] (Table S4b, 10^-6 mol/L); -0.002 in series [5] (Table S4b, 10^-7 mol/L); -0.001 in series [5] (Table S4b, 10^-8 mol/L).
With GnRH-III(Dox-glut-GFLG) [conjugate 2], the values for the concentration for half-maximal inhibition (IC50) in series [1], in series [2] and in series [3] were above 100 µM, 0.089 ± 0.02 µM and above 100 µM, respectively. For the same compound, the “delta slope (DS), short-term” value in series [4] (Table S2a, 10^-6 mol/L) is 0.058; in series [4] (Table S2a, 10^-7 mol/L) it was 0.016; in series [4] (Table S2a, 10^-8 mol/L) it was -0.004; in series [5] (Table S2b, 10^-6 mol/L), 0.008; in series [5] (Table S2b, 10^-7 mol/L) it was 0.003; in series [5] (Table S2b, 10^-8 mol/L) it was 0.009. Also, the “delta slope (DS), long-term” value in series [4] (Table S2a, 10^-6 mol/L, listed as 2) was -0.042; in series [4] (Table S2a, 10^-6 mol/L, listed as GnRH-III(Dox-glut-GFLG)) it was −0.042; in series [4] (Table S2a, 10^-7 mol/L, listed as 2), -0.017; in series [4] (Table S2a, 10^-7 mol/L, listed as GnRH-III(Dox-glut-GFLG)), −0.017; in series [4] (Table S2a, 10^-8 mol/L), -0.002; in series [5] (Table S2b, 10^-6 mol/L), −0.019. In addition, the “delta slope (DS), long-term” value in series [5] (Table S2b, 10^-7 mol/L) was −0.004; in series [5] (Table S2b, 10^-8 mol/L) it was 0.001.
As for `COc1cccc2c1C(=O)c1c(O)c3c(c(O)c1C2=O)C[C@@](O)(C(=O)CO)C[C@@H]3O[C@H]1C[C@H](N)[C@H](O)[C@H](C)O1` [doxorubicin], the concentration for half-maximal inhibition (IC50) in series [1] was 0.1 µM; in series [2], 0.007 ± 0.0001 µM; in series [3], 0.1 µM. Further, the “Cardiotoxicity, HUVEC” value in series [4] is listed as “+++”. For the same compound, the “delta slope (DS), short-term” value in series [4] (Table S1a, 10^-6 mol/L) is on record as 0.063; in series [4] (Table S1a, 10^-7 mol/L) it was 0.037; in series [4] (Table S1a, 10^-8 mol/L), -0.008; in series [4] (Table S1a, 10^-9 mol/L), 0.003; in series [4] (Table S1a, 10^-10 mol/L) it was -0.004; in series [4] (Table S1a, 10^-11 mol/L), 0.021. Further, the “delta slope (DS), short-term” value in series [4] (Table S1a, 10^-12 mol/L) was 0.008; in series [4] (Table S2a, 10^-6 mol/L), 0.012; in series [4] (Table S2a, 10^-7 mol/L), 0.032; in series [4] (Table S2a, 10^-8 mol/L), 0.002; in series [5] (Table S1b, 10^-6 mol/L), 0.019; in series [5] (Table S1b, 10^-7 mol/L), 0.003. Besides, the “delta slope (DS), short-term” value in series [5] (Table S1b, 10^-8 mol/L) is listed as 0.001; in series [5] (Table S1b, 10^-9 mol/L), -0.001; in series [5] (Table S1b, 10^-10 mol/L), 0.002; in series [5] (Table S1b, 10^-11 mol/L) it was 0.002; in series [5] (Table S1b, 10^-12 mol/L) it was 0.001; in series [5] (Table S2b, 10^-6 mol/L), 0.057. Besides, the “delta slope (DS), short-term” value in series [5] (Table S2b, 10^-7 mol/L) was -0.001; in series [5] (Table S2b, 10^-8 mol/L) it was 0.001. Besides, the “Cardiotoxicity, HCM” value in series [5] is listed as “+++”.
